Legend:
[1] = molecular target: recombinant human kappa opioid receptor (KOR) (Homo sapiens (Human), UniProt P41145); type: binding
[2] = molecular target: recombinant human mu opioid receptor (MOR) (Homo sapiens (Human), UniProt P35372); test: Opioid receptor radioligand binding assay, MOR ([3H]DAMGO); conditions: membranes of HEK293 cells expressing recombinant human MOR; 0.5 nM [3H]DAMGO

CC(C)C[C@@H](NC(=O)[C@@H](Cc1ccccc1)NC(=O)[C@H](N)[C@H](C)c1ccccc1)C(=O)N[C@H](CCCCN)C(=O)N1CCC(N)(C(=O)O)CC1 [Compound 18]
IC50 [1]: 0.000253 µM
δ/k [1]: >39603
μ/k [1]: 38855
IC50 [2]: 9.81 µM
